# Assay results reported in patent publication US20250339409A1, “USES OF PAN BET INHIBITORS” (VYNE THERAPEUTICS INC., priority 2021, published 2025).
# Where “and” joins values, the source holds several entries; their conditions need not be identical. Equal values may be shown once. Read-outs that look alike come from different tables or passages of the source.
# Key:
# [1] = tested on: bleomycin induced pulmonary fibrosis; assay: Bleomycin mice: lung histopathology (H & E, Masson's Trichrome), Hübner-modified Ashcroft score; assay type: in vivo, C57BL/6 male mice; conditions: for mean score, Hübner-modified Ashcroft scale of 0-8: bleomycin
# Description: Seven mice from each group are randomly submitted for histopathology analysis (Hematoxylin and eosin (H & E) and Masson's Trichrome (MT)). The lungs are trimmed as needed and processed overnight in a Citadel 1000 automated processor by Shandon Scientific. Post-processing, lungs are embedded in paraffin blocks and sectioned in the following fashion: several slides are generated with lung sections in the first 1 mm of tissue, middle portions of the tissue, and finally near the latter third of the tissue in order to glean histological alterations throughout the lung. Sections are cut at […] thickness with a rotary microtome. Several slides per lung (at each depth) are stained with a H & E stain (reagents from Fisher Scientific) and MT Stain (Sigma kit HT15).
# Pathological alterations are evaluated by a pathologist in blind manner (both dosage and treatment programs are unknown to the pathologist). The subacute interstitial inflammation and Agonal Hemorrhage are evaluated mainly based on the H & E staining. Fibrotic modifications are assessed morphologically and semi-quantitatively graded according to the scale defined by Ashcroft and modified by Hübner. Three sections for each lung sample are stained with MT and scored on a scale of 0-8. The final score is expressed as a mean of individual scores observed across all microscopic fields. In order to quantify the distribution of pulmonary fibrosis, the Ashcroft scores are graded in 3 general classes of increasing values: ranging from 0-3 (mild), 4 (moderate) and ≥5 (severe).
# Three sections for each lung sample were stained with H & E and Masson's Trichrome and scored on a Hübner-modified Ashcroft scale of 0-8. Three pictorial representations for each of groups 1-5 are shown in FIGS. 19A-E respectively (100×) and one representation for each of groups 1-5 is shown in FIGS. 19F-J (40×). Histology provides a picture or snapshot of the absence or presence of fibrosis. […] Other groups with higher concentrations of BETi also appeared to lessen bleomycin induced fibrosis but to a lesser degree.
# [2] = Solubility of BETi1 in water (HPLC) and in solvents (visual observation); assay type: physicochemical; conditions: sample of 0.04 mg/g (0.004%) in NaCMC/saline
# [3] = tested on: anti collagen antibodies induced arthritis (ACAIA); assay: ACAIA mice: histopathology of hind paws (tarsus); assay type: in vivo, Balb/c mice; design: key to Histology: Score / Histology: Score, MEAN: 0 = within normal limits, 1 minimal, 2 mild, 3 moderate, 4 severe; conditions: for Histology: Score, MEAN: group mean; for Histology: Bones / Histology: Cartilage / Histology: Joint space / Histology: Score / Histology: Soft tissue: individual animals;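 as to all read-outs here: Mid-sagittal H&E-stained sections of mouse tarsus taken at study end, lesion severity graded from 0 (normal) to 4 (severe)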
# Description: At the end of the study, the mice are euthanized using pentobarbital sodium injection. Once euthanized, one hind paw of each animal is harvested and collected into vials containing 4% formalin for histology analysis.
# The samples are sagittal sections of the right and left murine tarsus. The histology scoring is based on the severity of the lesions, taking into account both the number of infiltrating cells and the extent of cartilage and bone damage. To be classified as severe, a lesion has to show bone and cartilage damage (beyond degeneration for the latter). The scores are 0=within normal limits, 1-minimal, 2-mild, 3-moderate, 4-severe.
# Statistics and data evaluation are primarily based on the mean values for body weight, arthritis clinical scoring and paw thickness measurements. Where appropriate, analysis of the data by one-way ANOVA followed by Dunnett's post-test is applied to determine the significance of treatment effects. All data for the histopathological analysis is presented as Mean±SEM. The treatment groups are compared to the Vehicle group (Group 1) or the contralateral hind paw using the Student's T-test. A p-value <0.05 is considered to represent a significant difference.
# Histopathological analysis was conducted in accordance with Method B. Tissues from groups 1, 2, 3 and 7 were processed. Following decalcification, the tissues were cut mid-sagitally and were processed and sectioned for H & E staining. The histopathological analysis included an examination of the number of infiltrating cells and the extent of cartilage and bone damage.
# [4] = Toxicokinetics in dogs after intra-articular injection: plasma concentrations; assay type: in vivo, Beagle dogs; conditions: dog; for AUC(0-t) / Cmax / Tmax / concentration at 1 h / concentration at 2 h / concentration at 4 h / concentration at 8 h / concentration at 24 h / concentration at 336 h / concentration at 504 h / concentration at 672 h / concentration at 4 weeks: Beagle, plasma; for AUC(0-t): read-out: Plasma AUC0-672 h; for concentration at 1 h / concentration at 2 h / concentration at 4 h / concentration at 8 h / concentration at 24 h / concentration at 336 h / concentration at 504 h / concentration at 672 h / concentration at 4 weeks: other: intra-articular injection; for concentration at 1 h / concentration at 2 h / concentration at 4 h / concentration at 8 h / concentration at 24 h / concentration at 336 h / concentration at 504 h / concentration at 672 h: read-out: Plasma concentration of BETi1; for concentration at 4 weeks: read-out: plasma level at four weeks post-treatment
# [5] = Solubility of BETi1 in solutions of hydroxypropyl-β-cyclodextrin in saline (HPLC); assay type: physicochemical; conditions: for solubility: aqueous with cosolvent or surfactant or cyclodextrin, thermodynamic from solid, 25° C., HPLC, read-out: Approximate solubility
# Method: Saline is prepared by dissolving 0.9% of NaCl in water. 10% w/w or 20% w/w of hydroxypropyl-β-cyclodextrin (2HP-β-CD) is added to saline, sonicated for 1 minute, and mixed using magnetic stirrer until complete dissolution of 2HP-β-CD and a clear solution is obtained. Sufficient BETi1 is added to each 2HP-β-CD solution such that not all BETi1 is completely dissolved. The mixture is stirred with a magnetic stirrer at ambient conditions overnight (for at least 16 hours). The saturated samples, still containing solid phase, are filtered through a 0.45 μm filter and the filtrate is analyzed by HPLC.
# [6] = Chemical and physical stability of formulations (HPLC, polarized light microscopy); assay type: physicochemical; conditions: 3 m at 25° C.
# Method: For Polarized Light Microscopy evaluation, the samples of the formulations in petrolatum are heated to 55° C. to melt most of the petrolatum crystals and make visible crystals of API. The API crystals are measured and photomicrographs are taken.
# The microscopy samples of API are prepared by dispersing some (unmeasured amount) of API powder in a drop of mineral oil. The dispersion is done by a spatula. The concentration of API in mineral oil is unknown.
# The stability of prepared formulations was assessed by HPLC testing of samples of two formulations, prepared with API from two different sources. […] The area % of the main peak in the samples after temperature exposure was compared to area % of the main peak in initial samples of the same batches and in the corresponding APIs. The samples exposed to stability challenge were also evaluated for presence of new peaks, not observed in API or in initial samples.
# [7] = 1 mg/kg IA (Group 3), L paw (injected)
# [8] = 1 mg/kg IA (Group 3), R paw (contralateral)
# [9] = 10 mg/kg IA (Group 2), Mean±SEM
# [10] = 10 mg/kg IA (Group 2), L paw (injected)
# [11] = 10 mg/kg IA (Group 2), R paw (contralateral)
# [12] = both sexes, 7.5 mg/animal, 7.5 mg intra-articular
# [13] = both sexes, 75 mg/animal, 75 mg intra-articular
# [14] = both sexes, 150 mg/animal, 150 mg intra-articular
smiles,measurement,setting,value
Cn1cc(-c2cccc(O)c2Oc2ccccc2)c2cc[nH]c2c1=O [BETi1],Mean Histology Score (Hubner-modified Ashcroft),[1]; Group 3 Bleo/BETi1 0.06 mg/mL,3.00
same,Mean Histology Score (Hubner-modified Ashcroft),[1]; Group 4 Bleo/BETi1 0.6 mg/mL,4.64
same,Mean Histology Score (Hubner-modified Ashcroft),[1]; Group 5 Bleo/BETi1 3 mg/mL,5.52
same,"mean score, Hübner-modified Ashcroft scale of 0-8",[1]; 0.06 mg/mL,3.00
same,"mean score, Hübner-modified Ashcroft scale of 0-8",[1]; 0.6 mg/mL,4.64
same,"mean score, Hübner-modified Ashcroft scale of 0-8",[1]; 3 mg/mL,5.52
same,fraction of API in undissolved form,[2],approximately 90%
same,"mean histopathological score, treated left hind paw","[3]; 1 mg/kg IA (Group 3), Mean±SEM",2.14±0.55 a.u.
same,"Histology: Score, MEAN",[3]; [7],2.14
same,Histology: Bones,[3]; [7],3.5 and 2 and 0 (3×) and 3 and 4
same,Histology: Cartilage,[3]; [7],3.5 and 2 and 0 (3×) and 3 and 4
same,Histology: Joint space,[3]; [7],4 (4×) and 0 (3×)
same,Histology: Score,[3]; [7],3.5 (3×) and 2.5 and 1 (2×) and 0
same,Histology: Soft tissue,[3]; [7],3 (2×) and 2.5 (2×) and 1 (2×) and 0
same,"Histology: Score, MEAN",[3]; [8],3.57
same,Histology: Bones,[3]; [8],4 (5×) and 0 and 3.5
same,Histology: Cartilage,[3]; [8],4 (6×) and 0
same,Histology: Joint space,[3]; [8],4 (6×) and 0
same,Histology: Score,[3]; [8],4 (6×) and 1
same,Histology: Soft tissue,[3]; [8],4 (3×) and 1 and 3.5 (2×) and 3
same,"histopathology findings, treated paws","[3]; 1 mg/kg IA (Group 3L), 3/7 cases",moderate to severe lesions with destruction of cartilage and bone
same,"mean histopathological score, contralateral right hind paw",[3]; [9],4.00±0.00 a.u.
same,"mean histopathological score, treated left hind paw",[3]; [9],0.33±0.21 a.u.
same,"Histology: Score, MEAN","[3]; 10 mg/kg IA (Group 2), L paw (injected), **p < 0.01 vs Vehicle Group, ##p < 0.01 vs contralateral (Right) paw",0.33**##
same,Histology: Bones,[3]; [10],0
same,Histology: Cartilage,[3]; [10],0
same,Histology: Joint space,[3]; [10],0
same,Histology: Score,[3]; [10],0 (4×) and 1 (2×)
same,Histology: Soft tissue,[3]; [10],0 (4×) and 1 (2×)
same,"Histology: Score, MEAN",[3]; [11],4.00
same,Histology: Bones,[3]; [11],4
same,Histology: Cartilage,[3]; [11],4
same,Histology: Joint space,[3]; [11],4
same,Histology: Score,[3]; [11],4
same,Histology: Soft tissue,[3]; [11],4 (4×) and 3.5 (2×)
same,"histopathology findings, treated paws",[3]; 10 mg/kg IA (group 2L),4/6 were WNL
same,AUC(0-t),"[4]; 7.5 mg/animal, Female, Study Day 1",472 ng·h/mL
same,Cmax,"[4]; 7.5 mg/animal, Female, Study Day 1, read-out: Plasma Cmax",37.6 ng/mL
same,Tmax,"[4]; 7.5 mg/animal, Female, Study Day 1, read-out: Plasma Tmax",1.5 h
same,AUC(0-t),"[4]; 7.5 mg/animal, Male, Study Day 1",390 ng·h/mL
same,Cmax,"[4]; 7.5 mg/animal, Male, Study Day 1, read-out: Plasma Cmax",32.1 ng/mL
same,Tmax,"[4]; 7.5 mg/animal, Male, Study Day 1, read-out: Plasma Tmax",4 h
same,AUC(0-t),"[4]; 75 mg/animal, Female, Study Day 1",3760 ng·h/mL
same,Cmax,"[4]; 75 mg/animal, Female, Study Day 1, read-out: Plasma Cmax",56.6 ng/mL
same,Tmax,"[4]; 75 mg/animal, Female, Study Day 1, read-out: Plasma Tmax",2 h
same,AUC(0-t),"[4]; 75 mg/animal, Male, Study Day 1",3070 ng·h/mL
same,Cmax,"[4]; 75 mg/animal, Male, Study Day 1, read-out: Plasma Cmax",50.2 ng/mL
same,Tmax,"[4]; 75 mg/animal, Male, Study Day 1, read-out: Plasma Tmax",2 h
same,AUC(0-t),"[4]; 150 mg/animal, Female, Study Day 1",5990 ng·h/mL
same,Cmax,"[4]; 150 mg/animal, Female, Study Day 1, read-out: Plasma Cmax",52.9 ng/mL
same,Tmax,"[4]; 150 mg/animal, Female, Study Day 1, read-out: Plasma Tmax",5 h
same,AUC(0-t),"[4]; 150 mg/animal, Male, Study Day 1",3810 ng·h/mL
same,Cmax,"[4]; 150 mg/animal, Male, Study Day 1, read-out: Plasma Cmax",48.8 ng/mL
same,Tmax,"[4]; 150 mg/animal, Male, Study Day 1, read-out: Plasma Tmax",2 h
same,concentration at 1 h,[4]; [12],29.6 ng/mL
same,concentration at 2 h,[4]; [12],32.6 ng/mL
same,concentration at 4 h,[4]; [12],26.1 ng/mL
same,concentration at 8 h,[4]; [12],15.9 ng/mL
same,concentration at 24 h,[4]; [12],2.02 ng/mL
same,concentration at 336 h,[4]; [12],0 ng/mL
same,concentration at 504 h,[4]; [12],0 ng/mL
same,concentration at 672 h,[4]; [12],0 ng/mL
same,concentration at 1 h,[4]; [13],49.1 ng/mL
same,concentration at 2 h,[4]; [13],53.4 ng/mL
same,concentration at 4 h,[4]; [13],39.4 ng/mL
same,concentration at 8 h,[4]; [13],38.1 ng/mL
same,concentration at 24 h,[4]; [13],13.5 ng/mL
same,concentration at 336 h,[4]; [13],1.95 ng/mL
same,concentration at 504 h,[4]; [13],0.835 ng/mL
same,concentration at 672 h,[4]; [13],0.505 ng/mL
same,concentration at 1 h,[4]; [14],42.2 ng/mL
same,concentration at 2 h,[4]; [14],48.8 ng/mL
same,concentration at 4 h,[4]; [14],35.8 ng/mL
same,concentration at 8 h,[4]; [14],48.2 ng/mL
same,concentration at 24 h,[4]; [14],20.9 ng/mL
same,concentration at 336 h,[4]; [14],4.72 ng/mL
same,concentration at 504 h,[4]; [14],2.19 ng/mL
same,concentration at 672 h,[4]; [14],1.72 ng/mL
same,concentration at 4 weeks,"[4]; both sexes, 75 mg/animal, intra-articular, 75 mg",2 nM
same,concentration at 4 weeks,"[4]; both sexes, 150 mg/animal, intra-articular, 150 mg",5 nM
same,Tmax,"[4]; both sexes, intra-articular, calculated, read-out: Tmax, plasma (converted)",~120 h
same,Cmax,"[4]; both sexes, intra-articular, read-out: Cmax, plasma",50 ng/mL
same,clearance indicated by plasma levels,[4]; intra-articular,rapid clearance with a reduction being seen after 4 hours
same,plasma AUC lower compared to synovial levels,[4]; intra-articular,~2000 ×
same,plasma Cmax lower compared to synovial levels,[4]; intra-articular,~1000 ×
same,amount of BETi1 fully dissolved,"[5]; 10% HP-b-CD in saline, room temperature",below 4.3 mg/mL
same,solubility,"[5]; 10% w/w hydroxypropyl-β-cyclodextrin in saline, 2HP-β-CD - Saline (10%:90%)",4340 µg/mL
same,solubility,"[5]; 20% w/w hydroxypropyl-β-cyclodextrin in saline, 2HP-β-CD - Saline (20%:80%)",8990 µg/mL
same,degradation in compositions comprising suspended BETi1,[6],no degradation of BETi1 being observed
